# Columns and labels:
# [1] = system: DU-145 (hormone-insensitive prostate cancer); assay: Sulforhodamine B cytotoxicity assay, DU-145; format: cell-based, human; settings: Table 1; 72 h; average ± SD
# Method: The 12 novel 1-derivatives 9a-l were evaluated for in vitro antiproliferative activity against four human tumor cell lines, KB (nasopharyngeal), A-549 (lung), DU-145 (prostate), and KBvin (MDR KB subline), by using a sulforhodamine B colorimetric assay with triplicate experiments.^30 Compounds 1 and 3 were used as controls.
# The human tumor cell lines used in this manuscript were A-549 (lung carcinoma), MDA-MB-231 (triple-negative breast cancer), DU-145 (hormone-insensitive prostate cancer), KB (originally isolated from epidermoid carcinoma of the nasopharynx), KBvin (vincristine-resistant KB subline), and HCT116 (colorectal adenocarcinoma). These cell lines were obtained from the Lineberger Comprehensive Cancer Center (UNC-CH) or from ATCC (Manassas, Va.), except KBvin, which was a generous gift of Professor Y.-C. Cheng (Yale University). All cell lines were maintained and assayed in RPMI-1640 medium containing 2 mM L-glutamine and 25 mM HEPES (HyClone), supplemented with 10% heat-inactivated fetal bovine serum (HyClone), 100 μg/mL streptomycin, 100 IU/mL penicillin, and 0.25 μg/mL amphotericin B (Cellgro) in a humidified atmosphere containing 5% CO2 in air. Compound stock solutions were prepared at 10 mM in DMSO and diluted with culture medium with the final DMSO concentration ≦0.01% (v/v), a concentration without effect on cell growth. The 4-6×10^3 cells/well were cultured for 72 h with various concentrations of test compounds in 96-well plate at 37° C. […] Each assay was performed in triplicate with duplicated samples.
# [2] = biological target: T1, recombinant human Topoisomerase I (Homo sapiens, UniProt P11387); assay: Topoisomerase I activity assay in a cell-free system; format: biochemical; settings: purified recombinant human Topo I
# T1 construct: purchased TopoGEN
# T1 sequence (P11387 1-765): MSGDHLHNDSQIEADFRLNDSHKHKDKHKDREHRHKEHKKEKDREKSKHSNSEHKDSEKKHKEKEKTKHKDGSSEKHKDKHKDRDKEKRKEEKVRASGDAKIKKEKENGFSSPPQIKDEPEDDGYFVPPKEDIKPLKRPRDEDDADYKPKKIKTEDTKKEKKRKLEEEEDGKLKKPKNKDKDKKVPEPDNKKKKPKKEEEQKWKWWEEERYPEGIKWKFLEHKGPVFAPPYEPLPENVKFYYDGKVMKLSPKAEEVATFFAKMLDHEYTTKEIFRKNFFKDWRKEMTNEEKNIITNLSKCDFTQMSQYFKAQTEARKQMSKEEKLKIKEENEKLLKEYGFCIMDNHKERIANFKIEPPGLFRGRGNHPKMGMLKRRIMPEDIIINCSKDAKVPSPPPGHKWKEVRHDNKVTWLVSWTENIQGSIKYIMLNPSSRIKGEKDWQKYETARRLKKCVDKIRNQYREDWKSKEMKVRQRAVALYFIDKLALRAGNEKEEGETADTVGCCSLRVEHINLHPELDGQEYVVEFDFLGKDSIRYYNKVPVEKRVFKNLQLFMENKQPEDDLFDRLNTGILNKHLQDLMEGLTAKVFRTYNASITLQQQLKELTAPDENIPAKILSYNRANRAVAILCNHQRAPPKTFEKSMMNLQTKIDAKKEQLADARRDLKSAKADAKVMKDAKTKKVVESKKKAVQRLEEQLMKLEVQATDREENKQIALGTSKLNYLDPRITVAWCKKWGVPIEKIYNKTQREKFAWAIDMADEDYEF
# Method: Inhibition of Topo I activity by 9a in a cell-free system. A 1-delivative with an esterified 20-hydroxy group is expected to be activated by digestion with carboxylesterases. […] We authenticated the inhibitory effect of 9a against Topo I in a dose-dependent manner Thus, we confirmed that 9a is a new class of Topo I inhibitor.
# One unit of recombinant human Topoisomerase I enzyme (TopoGEN) was pre-incubated for 20 min at 37° C. with vehicle, 9a, 1, 3, or SN-38 in a final volume of 20 μL reaction buffer (10 mM Tris-HCl, pH 7.9, 1 mM EDTA, 150 mM NaCl, 0.1% BSA, 0.1 mM spermidine, 5% glycerol) was then incubated with 250 ng of supercoiled plasmid DNA for 20 min. The supercoiled, relaxed, or nicked DNA was separated by 1% agarose gel in 1×TAE (Tris-Acetate-EDTA) buffer. Ethidium bromide stained agarose gel was photographed using Gel Doc XR (Bio-Rad).
# A-549 cells [3] = assay: Apoptosis assessment, Annexin V-FITC/propidium iodide double staining; format: cell-based, human
# Method: Initially, we investigated morphological cellular changes. […] PARP, a hallmark of apoptosis, was also activated by 9a.
# Apoptosis was detected by Annexin V-FITC/propidium iodide double staining kit (BD Biosciences). A-549 cells were treated with 9a for 24 h or 48 h. Cells were harvested by trypsinization and washed with ice-cold PBS. Cells were labeled with annexin V-FITC and propidium iodide for 15 min at room temperature in the dark. Labeled cells were analyzed by FACSCalibur flow cytometer (Becton Dickinson).
# A-549 cells [4] = assay: Cell cycle analysis by flow cytometry; format: cell-based, human; settings: A-549, 24 h treatment
# Text: (§1) First, we determined the effect of 9a on cell cycle distribution using flow cytometry analysis. […] Because it has been shown that 1-Topo I-DNA covalent complexes enhance the transcription-dependent degradation of Topo I via a 26S proteasome pathway,^32 the effects of 9a on the expression levels of Topo I and Topo II were investigated. […] Compound 9a acts directly on Topo I and results in the accumulation of covalent Topo I-DNA complexes followed by proteasomal Topo I degradation, which is the same effect as 1 and contributes to 9a's cytotoxicity.
# A-549 cells were fixed with ice-cold 70% EtOH followed by propidium iodide staining Samples were analyzed by a flow cytometer for cell cycle determination. Population of each cell cycle phase was calculated based on the ploidy (<2N as sub-G1; 2N as G1; between 2N and 4N as S; 4N as G2/M), and evaluated statistically by Student's t-test (P<0.01).
# Topo II = Topo II activity assay, nuclear extracts of treated A-549 cells, catenated kDNA; format: cell-based, human
# Text: as §1
# Topo I activity test was performed using an assay kit (TopoGEN) according to the manufacturer's instructions. Nuclear extracts from 9a-treated A-549 cells were incubated with supercoiled DNA (for Topo I) or catenated kDNA (for Topo II) for 30 min at 37° C. Reaction mixture was separated by is 1% agarose gel in 1×TAE buffer. The gel was stained with ethidium bromide and photographed using Gel Doc XR (Bio-Rad).
compound,measurement,setting,value
CC[C@@]1(OC(=O)CNC(Cc2ccc(OC)cc2)=NS(=O)(=O)c2ccc(C)cc2)C(=O)OCc2c1cc1n(c2=O)Cc2cc3ccccc3nc2-1 [Compound 9a],IC50,[1],50 ± 3.8 nM
same,Inhibition of Topo I activity (relaxation/nicking of supercoiled plasmid DNA),[2],inhibited Topo I activity
same,annexin V positive cell population,"A-549 cells [3]; A-549, 24 h, vehicle […]",3.7%
same,annexin V positive cell population,"A-549 cells [3]; A-549, 48 h, vehicle 2.0%",34.1%
same,cell cycle distribution,A-549 cells [4],increased cell populations in S and sub-G1 phases
same,Topo II decatenation of kDNA,Topo II,failed to decatenate kineoplast DNA
